Experimental data published in publication PMC10449633 (Nature Chemical Biology, 2023).
Where two headings read alike, the source gives them in different places. Numbered stars: 1 amine (or outer) side, 2 acyl side, 3 side chain; on linkers, the order of the positions; unused ones are H or OH. Square brackets hold non-standard residues; d marks the D form. Peptide text beside a SMILES is read from it. ξ: configuration not given here. X1 = CN(C(Cc1cn(Cc2ccc(Br)cc2)c2ccccc12)C(=O)[*:2])[*:1]; ξAla(CF3) = NC(CC(F)(F)F)C(=O)O; X2 = N#CCCC(O[*:1])C(=O)[*:2]; NMeL = CN[CH](CC(C)C)C(=O)O; NMeA = CN[CH](C)C(=O)O

Target: T1, Sec61 (Homo sapiens, UniProt P61619)
T1 construct: endogenous in cells
Assay: signal peptide-GLuc (SP-GLuc) reporter panel, 89 constructs
Assay type: cell-based
Excerpt: The heat map depicts IC50 values calculated from each SP-GLuc dose–response curve. d, Arthritis was induced in BALB/c mice with antibodies specific for type II collagen (mAb) on day 0 and endotoxin on day 3. On day 4, when the disease was present in all animals, mice were randomized and treated for 2 weeks with thrice weekly (QODx3) or weekly (QW) intravenous administration of vehicle or KZR-8445 or intraperitoneal administration of dexamethasone. Clinical scores (0–4 per paw; n = 10 per group) and body weights were followed until day 14. Data are presented as mean values ± s.d. mAb, monoclonal antibody. Source data
To investigate the effects of KZR-8445 on secretory and membrane protein biogenesis and to establish Sec61α as the relevant target, we quantified the secretion of a doxycycline-inducible Gaussia luciferase (GLuc) reporter fused to the C-terminus of two full-length pro-inflammatory cytokines, interleukin-2 (IL-2) (which contains a cleavable signal peptide) and tumor necrosis factor-alpha (TNFα) (which contains an N-terminal transmembrane anchor). […] KZR-8445 is structurally related to CT8, which discriminates among Sec61 clients based largely on their N-terminal signal peptide. […] We also directly compared KZR-8445 to mycolactone A/B, a structurally distinct and relatively client-nonselective Sec61 inhibitor[8],[25], for their ability to discriminate between vascular cell adhesion molecule (VCAM) and preprolactin (pPL) signal peptides.

T1 sequence (P61619 whole entry): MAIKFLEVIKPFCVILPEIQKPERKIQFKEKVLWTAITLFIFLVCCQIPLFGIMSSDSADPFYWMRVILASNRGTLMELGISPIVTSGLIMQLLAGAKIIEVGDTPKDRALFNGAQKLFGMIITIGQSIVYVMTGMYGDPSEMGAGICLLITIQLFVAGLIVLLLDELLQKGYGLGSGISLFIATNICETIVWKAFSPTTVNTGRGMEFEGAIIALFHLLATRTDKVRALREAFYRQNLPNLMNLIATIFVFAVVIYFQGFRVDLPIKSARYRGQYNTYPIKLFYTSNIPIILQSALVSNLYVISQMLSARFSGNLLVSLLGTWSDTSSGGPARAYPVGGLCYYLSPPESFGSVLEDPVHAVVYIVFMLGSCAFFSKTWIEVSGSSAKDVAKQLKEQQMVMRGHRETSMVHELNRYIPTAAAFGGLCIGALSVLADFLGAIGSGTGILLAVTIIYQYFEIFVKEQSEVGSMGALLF
T1 sequence (P60059 whole entry, further chain): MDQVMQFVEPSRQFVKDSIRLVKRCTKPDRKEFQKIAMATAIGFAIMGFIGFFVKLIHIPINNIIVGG
T1 sequence (P60468 whole entry, further chain): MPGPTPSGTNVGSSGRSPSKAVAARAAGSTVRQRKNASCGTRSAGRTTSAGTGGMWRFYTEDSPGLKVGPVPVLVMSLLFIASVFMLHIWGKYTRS

SMILES: CC(C)CC1NC(=O)C(Cc2cn(Cc3ccc(Br)cc3)c3ccccc23)N(C)C(=O)C(CC(F)(F)F)NC(=O)C(CC(C)C)N(C)C(=O)C(CC(F)(F)F)NC(=O)C(CCC#N)OC(=O)C(C)N(C)C1=O (centres unmarked) [KZR-8445] (cyclo([X1]L[NMeA][X2][ξAla(CF3)][NMeL][ξAla(CF3)]); configuration not given here)
- IC50 (89 signal peptide-GLuc reporters, 24 h, read-out: highest IC50 in the panel): > 25000 nM
- IC50 (89 signal peptide-GLuc reporters, 24 h, read-out: lowest IC50 in the panel): 5 nM
- IC50 (89 signal peptide-GLuc reporters, 24 h, read-out: median IC50 of the panel): 366 nM
- IC50 (ADPGK SP-GLuc, read-out: log10(IC50 8445) (converted)): 540 nM
- IC50 (ANGPTL3 SP-GLuc, read-out: log10(IC50 8445) (converted)): 49.4 nM
- IC50 (APOC1 SP-GLuc, read-out: log10(IC50 8445) (converted)): 135 nM
- IC50 (APP SP-GLuc, read-out: log10(IC50 8445) (converted)): 449 nM
- IC50 (AXL SP-GLuc, read-out: log10(IC50 8445) (converted)): 13.8 nM
- IC50 (BCAN SP-GLuc, read-out: log10(IC50 8445) (converted)): 142 nM
- IC50 (C1S SP-GLuc, read-out: log10(IC50 8445) (converted)): 383 nM
- IC50 (CALCA SP-GLuc, read-out: log10(IC50 8445) (converted)): 721 nM
- IC50 (CALCB SP-GLuc, read-out: log10(IC50 8445) (converted)): 972 nM
- IC50 (CD40 SP-GLuc, read-out: log10(IC50 8445) (converted)): 11300 nM
- IC50 (CD47 SP-GLuc, read-out: log10(IC50 8445) (converted)): 373 nM
- IC50 (CD96 SP-GLuc, read-out: log10(IC50 8445) (converted)): 29.2 nM
- IC50 (CD274 SP-GLuc, read-out: log10(IC50 8445) (converted)): 93.3 nM
- IC50 (CDH1 SP-GLuc, read-out: log10(IC50 8445) (converted)): 811 nM
- IC50 (CDH2 SP-GLuc, read-out: log10(IC50 8445) (converted)): 15.5 nM
- IC50 (CDH5 SP-GLuc, read-out: log10(IC50 8445) (converted)): 76 nM
- IC50 (CNPY2 SP-GLuc, read-out: log10(IC50 8445) (converted)): 394 nM
- IC50 (CPD SP-GLuc, read-out: log10(IC50 8445) (converted)): 694 nM
- IC50 (CR1L SP-GLuc, read-out: log10(IC50 8445) (converted)): 61.3 nM
- IC50 (CSF2RB SP-GLuc, read-out: log10(IC50 8445) (converted)): 652 nM
- IC50 (CTLA4 SP-GLuc, read-out: log10(IC50 8445) (converted)): 343 nM
- IC50 (DDRGK1 SP-GLuc, read-out: log10(IC50 8445) (converted)): 1850 nM
- IC50 (DMKN SP-GLuc, read-out: log10(IC50 8445) (converted)): 2630 nM
- IC50 (DNAJB11 SP-GLuc, read-out: log10(IC50 8445) (converted)): 4360 nM
- IC50 (ERBB2 SP-GLuc, read-out: log10(IC50 8445) (converted)): 536 nM
- IC50 (F3 SP-GLuc, read-out: log10(IC50 8445) (converted)): 162 nM
- IC50 (FGF23 SP-GLuc, read-out: log10(IC50 8445) (converted)): 28.2 nM
- IC50 (FLT3 SP-GLuc, read-out: log10(IC50 8445) (converted)): 360 nM
- IC50 (FNDC10 SP-GLuc, read-out: log10(IC50 8445) (converted)): 726 nM
- IC50 (FURIN SP-GLuc, read-out: log10(IC50 8445) (converted)): 4740 nM
- IC50 (GAS6 SP-GLuc, read-out: log10(IC50 8445) (converted)): 118 nM
- IC50 (HJV SP-GLuc, read-out: log10(IC50 8445) (converted)): 427 nM
- IC50 (HLA-G SP-GLuc, read-out: log10(IC50 8445) (converted)): 39.2 nM
- IC50 (HSPA13 SP-GLuc, read-out: log10(IC50 8445) (converted)): 1110 nM
- IC50 (IGF1R SP-GLuc, read-out: log10(IC50 8445) (converted)): 814 nM
- IC50 (IL1RAP SP-GLuc, read-out: log10(IC50 8445) (converted)): 101 nM
- IC50 (IL4R SP-GLuc, read-out: log10(IC50 8445) (converted)): 32 nM
- IC50 (IL4 SP-GLuc, read-out: log10(IC50 8445) (converted)): 359 nM
- IC50 (IL5RA SP-GLuc, read-out: log10(IC50 8445) (converted)): 1310 nM
- IC50 (IL5 SP-GLuc, read-out: log10(IC50 8445) (converted)): 1300 nM
- IC50 (IL6R SP-GLuc, read-out: log10(IC50 8445) (converted)): 92.3 nM
- IC50 (IL6 SP-GLuc, read-out: log10(IC50 8445) (converted)): 155 nM
- IC50 (IL6ST SP-GLuc, read-out: log10(IC50 8445) (converted)): 56.5 nM
- IC50 (IL7 SP-GLuc, read-out: log10(IC50 8445) (converted)): 5.23 nM
- IC50 (IL10 SP-GLuc, read-out: log10(IC50 8445) (converted)): 434 nM
- IC50 (IL11 SP-GLuc, read-out: log10(IC50 8445) (converted)): 183 nM
- IC50 (IL12B SP-GLuc, read-out: log10(IC50 8445) (converted)): 109 nM
- IC50 (IL12RB1 SP-GLuc, read-out: log10(IC50 8445) (converted)): 64.4 nM
- IC50 (IL13 SP-GLuc, read-out: log10(IC50 8445) (converted)): 59.1 nM
- IC50 (IL15RA SP-GLuc, read-out: log10(IC50 8445) (converted)): 294 nM
